Laboratory results as given in ChEMBL document CHEMBL3994622, “Design and synthesis of new RAF kinase-inhibiting antiproliferative quinoline derivatives. Part 2: Diarylurea derivatives” (Eur J Med Chem, 2017).

Experiments:
Format in all cases: functional
CCRF-CEM = assay: Growth inhibition of human CCRF-CEM cells assessed as cell growth at 0.003 uM incubated for 48 hrs by sulforhodamine B assay relative to control; conditions: read-out: Activity
SF-268 = assay: Growth inhibition of human SF268 cells assessed as cell growth at 0.003 uM incubated for 48 hrs by sulforhodamine B assay relative to control; conditions: SF-268, 48 h, read-out: Activity
SK-MEL-5 [1] = assay: Growth inhibition of human SK-MEL-5 cells assessed as cell growth at 0.003 uM incubated for 48 hrs by sulforhodamine B assay relative to control; conditions: SK-MEL-5, 48 h, read-out: Activity
IGROV-1 = assay: Growth inhibition of human IGROV1 cells assessed as cell growth at 0.003 uM incubated for 48 hrs by sulforhodamine B assay relative to control; conditions: IGROV-1, 48 h, read-out: Activity
A498 = assay: Growth inhibition of human A498 cells assessed as cell growth at 0.003 uM incubated for 48 hrs by sulforhodamine B assay relative to control; conditions: A498, 48 h, read-out: Activity
ACHN [2] = assay: Growth inhibition of human ACHN cells assessed as cell growth at 0.003 uM incubated for 48 hrs by sulforhodamine B assay relative to control; conditions: read-out: Activity
K562 [3] = assay: Growth inhibition of human K562 cells assessed as cell growth at 0.03 uM incubated for 48 hrs by sulforhodamine B assay relative to control; conditions: K562, 48 h, read-out: Activity
SNB-19 [4] = assay: Growth inhibition of human SNB19 cells assessed as cell growth at 0.03 uM incubated for 48 hrs by sulforhodamine B assay relative to control; conditions: SNB-19, 48 h, read-out: Activity
TK-10 [5] = assay: Growth inhibition of human TK10 cells assessed as cell growth at 0.03 uM incubated for 48 hrs by sulforhodamine B assay relative to control; conditions: TK-10, 48 h, read-out: Activity
HT-29 [6] = assay: Growth inhibition of human HT-29 cells assessed as cell growth at 0.3 uM incubated for 48 hrs by sulforhodamine B assay relative to control; conditions: HT-29, 48 h, read-out: Activity
SK-MEL-5 [7] = assay: Growth inhibition of human SK-MEL-5 cells assessed as cell growth at 0.3 uM incubated for 48 hrs by sulforhodamine B assay relative to control; conditions: SK-MEL-5, 48 h, read-out: Activity
ACHN [8] = assay: Growth inhibition of human ACHN cells assessed as cell growth at 0.3 uM incubated for 48 hrs by sulforhodamine B assay relative to control; conditions: read-out: Activity
HOP-92 [9] = assay: Growth inhibition of human HOP92 cells assessed as cell growth at 3 uM incubated for 48 hrs by sulforhodamine B assay relative to control; conditions: HOP-92, 48 h, read-out: Activity
SNB-75 [10] = assay: Growth inhibition of human SNB75 cells assessed as cell growth at 3 uM incubated for 48 hrs by sulforhodamine B assay relative to control; conditions: SNB-75, 48 h, read-out: Activity
OVCAR-8 = assay: Growth inhibition of human OVCAR8 cells assessed as cell growth at 3 uM incubated for 48 hrs by sulforhodamine B assay relative to control; conditions: OVCAR-8, 48 h, read-out: Activity
ACHN [11] = assay: Growth inhibition of human ACHN cells assessed as cell growth at 3 uM incubated for 48 hrs by sulforhodamine B assay relative to control; conditions: read-out: Activity
K562 [12] = assay: Growth inhibition of human K562 cells assessed as cell growth at 30 uM incubated for 48 hrs by sulforhodamine B assay relative to control; conditions: K562, 48 h, read-out: Activity
A549 [13] = assay: Growth inhibition of human A549/ATCC cells assessed as cell growth at 30 uM incubated for 48 hrs by sulforhodamine B assay relative to control; conditions: A549, 48 h, read-out: Activity
RXF 393 = assay: Growth inhibition of human RXF393 cells assessed as cell growth at 30 uM incubated for 48 hrs by sulforhodamine B assay relative to control; conditions: RXF 393, 48 h, read-out: Activity
HOP-92 [14] = assay: Growth inhibition of human HOP92 cells assessed as cell growth at 0.01 uM incubated for 48 hrs by sulforhodamine B assay relative to control; conditions: HOP-92, 48 h, read-out: Activity
SNB-75 [15] = assay: Growth inhibition of human SNB75 cells assessed as cell growth at 0.01 uM incubated for 48 hrs by sulforhodamine B assay relative to control; conditions: SNB-75, 48 h, read-out: Activity
TK-10 [16] = assay: Growth inhibition of human TK10 cells assessed as cell growth at 0.01 uM incubated for 48 hrs by sulforhodamine B assay relative to control; conditions: TK-10, 48 h, read-out: Activity
MDA-MB-435 = assay: Growth inhibition of human MDA-MB-435 cells assessed as cell growth at 0.1 uM incubated for 48 hrs by sulforhodamine B assay relative to control; conditions: MDA-MB-435, 48 h, read-out: Activity
UO-31 [17] = assay: Growth inhibition of human UO31 cells assessed as cell growth at 0.1 uM incubated for 48 hrs by sulforhodamine B assay relative to control; conditions: UO-31, 48 h, read-out: Activity
SNB-19 [18] = assay: Growth inhibition of human SNB19 cells assessed as cell growth at 1 uM incubated for 48 hrs by sulforhodamine B assay relative to control; conditions: SNB-19, 48 h, read-out: Activity
SNB-75 [19] = assay: Growth inhibition of human SNB75 cells assessed as cell growth at 1 uM incubated for 48 hrs by sulforhodamine B assay relative to control; conditions: SNB-75, 48 h, read-out: Activity
SK-MEL-2 = assay: Growth inhibition of human SK-MEL-2 cells assessed as cell growth at 1 uM incubated for 48 hrs by sulforhodamine B assay relative to control; conditions: SK-MEL-2, 48 h, read-out: Activity
SK-OV-3 = assay: Growth inhibition of human SKOV3 cells assessed as cell growth at 1 uM incubated for 48 hrs by sulforhodamine B assay relative to control; conditions: SK-OV-3, 48 h, read-out: Activity
BT-549 = assay: Growth inhibition of human BT549 cells assessed as cell growth at 1 uM incubated for 48 hrs by sulforhodamine B assay relative to control; conditions: BT-549, 48 h, read-out: Activity
A549 [20] = assay: Growth inhibition of human A549/ATCC cells assessed as cell growth at 10 uM incubated for 48 hrs by sulforhodamine B assay relative to control; conditions: A549, 48 h, read-out: Activity
HT-29 [21] = assay: Growth inhibition of human HT-29 cells assessed as cell growth at 10 uM incubated for 48 hrs by sulforhodamine B assay relative to control; conditions: HT-29, 48 h, read-out: Activity
HCT-116 = assay: Growth inhibition of human HCT116 cells assessed as cell growth at 100 uM incubated for 48 hrs by sulforhodamine B assay relative to control; conditions: HCT-116, 48 h, read-out: Activity
CAKI-1 = assay: Growth inhibition of human Caki1 cells assessed as cell growth at 100 uM incubated for 48 hrs by sulforhodamine B assay relative to control; conditions: CAKI-1, 48 h, read-out: Activity
UO-31 [22] = assay: Growth inhibition of human UO31 cells assessed as cell growth at 100 uM incubated for 48 hrs by sulforhodamine B assay relative to control; conditions: UO-31, 48 h, read-out: Activity
MDA-MB-231 = assay: Growth inhibition of human MDA-MB-231 cells assessed as cell growth at 100 uM incubated for 48 hrs by sulforhodamine B assay relative to control; conditions: MDA-MB-231, 48 h, read-out: Activity

COc1cc2cc(Oc3ccc(NC(=O)Nc4ccc(Cl)c(C(F)(F)F)c4)cc3)c(C)nc2cc1OC
growth at 0.003 µM (CCRF-CEM): 111%
growth at 0.003 µM (SF-268): 95%
growth at 0.003 µM (SK-MEL-5 [1]): 100%
growth at 0.003 µM (IGROV-1): 107%
growth at 0.003 µM (A498): 91%
growth at 0.003 µM (ACHN [2]): 95%
growth at 0.03 µM (K562 [3]): 102%
growth at 0.03 µM (SNB-19 [4]): 95%
growth at 0.03 µM (TK-10 [5]): 91%
growth at 0.3 µM (HT-29 [6]): 105%
growth at 0.3 µM (SK-MEL-5 [7]): 94%
growth at 0.3 µM (ACHN [8]): 95%
growth at 3 µM (HOP-92 [9]): -21%
growth at 3 µM (SNB-75 [10]): 10%
growth at 3 µM (OVCAR-8): 6%
growth at 3 µM (ACHN [11]): 8%
growth at 30 µM (K562 [12]): -60%
growth at 30 µM (A549 [13]): -80%
growth at 30 µM (RXF 393): -80%

COc1cc2cc(Oc3ccc(NC(=O)Nc4ccc(Cl)c(Cl)c4)cc3)c(C)nc2cc1OC
growth at 0.01 µM (HOP-92 [14]): 95%
growth at 0.01 µM (SNB-75 [15]): 89%
growth at 0.01 µM (TK-10 [16]): 106%
growth at 0.1 µM (MDA-MB-435): 92%
growth at 0.1 µM (UO-31 [17]): 101%
growth at 1 µM (SNB-19 [18]): 92%
growth at 1 µM (SNB-75 [19]): 83%
growth at 1 µM (SK-MEL-2): 121%
growth at 1 µM (SK-OV-3): 112%
growth at 1 µM (BT-549): 78%
growth at 10 µM (A549 [20]): -9%
growth at 10 µM (HT-29 [21]): -49%
growth at 100 µM (HCT-116): -100%
growth at 100 µM (CAKI-1): -64%
growth at 100 µM (UO-31 [22]): -57%
growth at 100 µM (MDA-MB-231): -100%

Cc1nc2cc(O)c(O)cc2cc1Oc1ccc(NC(=O)Nc2ccc(Cl)c(Cl)c2)cc1
growth at 0.003 µM (CCRF-CEM): 97%
growth at 0.003 µM (SF-268): 100%
growth at 0.003 µM (SK-MEL-5 [1]): 98%
growth at 0.003 µM (IGROV-1): 104%
growth at 0.003 µM (A498): 85%
growth at 0.003 µM (ACHN [2]): 103%
growth at 0.03 µM (K562 [3]): 110%
growth at 0.03 µM (SNB-19 [4]): 103%
growth at 0.03 µM (TK-10 [5]): 104%
growth at 0.3 µM (HT-29 [6]): 103%
growth at 0.3 µM (SK-MEL-5 [7]): 97%
growth at 0.3 µM (ACHN [8]): 107%
growth at 3 µM (HOP-92 [9]): 48%
growth at 3 µM (SNB-75 [10]): 83%
growth at 3 µM (OVCAR-8): 66%
growth at 3 µM (ACHN [11]): 51%
growth at 30 µM (K562 [12]): -3%
growth at 30 µM (A549 [13]): -10%
growth at 30 µM (RXF 393): 7%

COc1cc2cc(Oc3ccc(NC(=O)Nc4cc(C(F)(F)F)cc(C(F)(F)F)c4)cc3)c(C)nc2cc1OC
growth at 0.01 µM (HOP-92 [14]): 93%
growth at 0.01 µM (SNB-75 [15]): 81%
growth at 0.01 µM (TK-10 [16]): 96%
growth at 0.1 µM (MDA-MB-435): 98%
growth at 0.1 µM (UO-31 [17]): 73%
growth at 1 µM (SNB-19 [18]): 39%
growth at 1 µM (SNB-75 [19]): 75%
growth at 1 µM (SK-MEL-2): 85%
growth at 1 µM (SK-OV-3): 88%
growth at 1 µM (BT-549): 86%
growth at 10 µM (A549 [20]): -31%
growth at 10 µM (HT-29 [21]): -64%
growth at 100 µM (HCT-116): -87%
growth at 100 µM (CAKI-1): -60%
growth at 100 µM (UO-31 [22]): -89%
growth at 100 µM (MDA-MB-231): -83%
